The values that follow come from patent US10077436B2, “Beta-glucosidase enzymes for increased biomass saccharification” (Edeniq, Inc., priority 2013, dated 2018).

Test [1] has as its system A-BG (Accellerase® BG from DuPont), commercial beta-glucosidase. The experiment in a line: BG kinetics, pNPG hydrolysis assay with glucose as competitive inhibitor, A-BG. Type of test: biochemical. As for the experimental part:
The kinetic properties of beta glucosidase are important for cellulosic hydrolysis, since in commercial situations a wide range of substrate concentrations and different product inhibition conditions will be encountered. In this example, a Michaelis-Menten kinetics model was used to describe BG kinetics.
(§1) One pNPG unit is defined as the amount of enzyme that produces 1 μmol of pNP per min. Briefly, to determine BG activity, 25 μL of diluted enzyme in 200 mM sodium acetate buffer (pH 5.0) was mixed with 25 μL of the same buffer and 25 μL of RO water (or glucose solution for the kinetic study) and the mixture was preincubated at 50° C. for 5 min. The reaction was initiated by adding 25 μL of 10 mM pNPG in 200 mM sodium acetate buffer (pH 5.0) and the mixture was incubated at 50° C. for 10 min. The reaction was then terminated by adding 100 μL of 0.25 M sodium carbonate, and the amount of pNP produced was determined by measuring absorbance at 405 nm using a predetermined calibration curve.
The range of substrate concentration was chosen to show detectable activity at the lowest concentration and saturation stage at high substrate concentration.
(§2) To determine the kinetic properties, a competitive inhibition mechanism was hypothesized as proposed in the literature (Chauve et al, 2010; Krogh et al, 2010). The Michaelis-Menten equation with the competitive inhibition term can be expressed in Equation (1), where [S] is the substrate concentration (mM), [I] is the inhibitor concentration (mM), V is the rate of product formation (mM/min), Vmax is the maximal rate of product formation (mM/min), Km is the Michaelis-Menten constant and Ki is the inhibition constant. The turnover number, Kcat, can be calculated by Equation (2), where [Et] is the total amount of enzyme.
(§3) Conventionally, linearization methods can be used to determine the kinetic parameters based on Equation (1). Three common linear plots used are Lineweaver-Burke, Eadie-Hofstee and Hanes plots (Rogers and Gibon, 2009). However, these linearized versions of the Michaelis-Menten equation often produce substantial errors in parameter estimation. […] All of the activity data at different substrate levels and different inhibitor levels were fit simultaneously according to the full nonlinear equation for competitive enzyme inhibition as expressed in Equation (1). Thus, Vmax, Km and Ki can be determined simultaneously from this fitting process, and Km/Ki can then be calculated. Kcat can be obtained by Equation (2) and Kcat/Km can be calculated accordingly.
The above experimental data were fit in the competitive inhibition model as expressed in Equation (1) by simultaneous nonlinear regression.

For test [2], the system named is S-BG (Novozymes SP188 from Sigma), commercial beta-glucosidase. The experiment in a line: BG kinetics, pNPG hydrolysis assay with glucose as competitive inhibitor, S-BG. The class given is biochemical. The conditions noted are these: pH 5.0, 50° C.
Source text: The kinetic properties of beta glucosidase are important for cellulosic hydrolysis, since in commercial situations a wide range of substrate concentrations and different product inhibition conditions will be encountered. In this example, a Michaelis-Menten kinetics model was used to describe BG kinetics. To determine these kinetic properties, BG activity assays using standard substrates pNPG and cellobiose were employed. yEdQ745-BG (wild type) and yEdQ885-BG (improved), were compared with two commercial BGs, A-BG (Accellerase®) BG from Dupont) and S-BG (Novozymes SP188 from Sigma).
as §1, with “BG activity assay using pNPG is one of the two commonly used standard assays to measure BG activity, which utilizes hydrolysis of p-nitrophenyl-β-D-glucopyranoside (pNPG) by BG into a yellow colored product, p-nitrophenol (pNP), that has a strong absorbance at 405 nm. One” for “One”
The range of substrate concentration was chosen to show detectable activity at the lowest concentration and saturation stage at high substrate concentration. The upper limit of inhibitor (glucose) level was chosen to get as close as possible to the real conditions during saccharification (˜4% w/v glucose) and have a detectable residual activity.
as §2, §3
The above experimental data were fit in the competitive inhibition model as expressed in Equation (1) by simultaneous nonlinear regression. The order of maximum velocity (Vmax) is A-BG>yEdQ885-BG>S-BG≈yEdQ745-BG. […] Nevertheless, the in-house BGs have much higher dissociation constant for inhibitor (Ki), indicating higher tolerance to product inhibition. Consistent with Vmax, the order of turnover number (Kcat) is A-BG>yEdQ885-BG>S-BG≈yEdQ745-BG. With much lower Km and much higher Kcat, A-BG has a considerably higher catalytic efficiency (Kcat/Km) than the other enzymes. The catalytic efficiency of S-BG and yEdQ885-BG is quite close, which is higher than that of yEdQ745-BG. […]

Turning to `OC[C@H]1OC(O)[C@H](O)[C@@H](O)[C@@H]1O` (stereo partly shown) [glucose], the “loss of activity under glucose inhibition” value in test [1] (9 g/L initial glucose, 0.08 mM pNPG) is “lost activity completely”; in test [1] (36 g/L initial glucose, pNPG below 1.875 mM), “activity was completely lost”. Moreover, the “maximum relative activity under glucose inhibition” value in test [1] (36 g/L initial glucose, high pNPG concentration, relative to maximum activity without glucose) turned out to be 1.5%. The Km/Ki in test [1] (inhibitor influence, Km for pNPG / Ki for glucose, pH 5.0, 50° C.) is 0.22; in test [2] (inhibitor influence, Km for pNPG / Ki for glucose), 0.52. For the same compound, the Ki turned out to be 460 ± 50 µM in test [1] (pNPG substrate, competitive inhibition, pH 5.0, 50° C.) and 810 ± 110 µM in test [2] (pNPG substrate, competitive inhibition).
